Measured values from patent publication US6489307B1, “Antisense compositions targeted to β1-adrenoceptor-specific mRNA and methods of use” (University of Florida, priority 1998, dated 2002).
“Also recorded” adds a separate entry of the source. Like-named read-outs stand apart in the source and are kept apart here.

How the values were obtained:
[1] = test system: isolated perfused SHR hearts; assay: Isolated perfused SHR hearts (Langendorff), response to isoproterenol; format: in vivo, rat (SHR); settings: 48 hr after 1 mg/kg; vs inverted ODN
Experimental: 48 hr after injection of 1 mg/kg β1-AS-ODN (n=9) or inverted ODN (n=6), SHRs were anesthetized and killed. Hearts were quickly removed and perfused via the aorta with oxygenated Krebs buffer (118 mmol/L NaCl, 18.75 mmol/L NaHCO3 1.2 mmol/L KH2PO4, 4.7 mmol/L KCl, 1.2 mmol/L MgSO4, 1.25 mmol/L CaCl2, 11.1 mmol/L glucose, and 0.01 mmol/L EDTA) at a constant flow of 7.0 mL/min. at 36° C. Coronary perfusion pressure was measured via a catheter placed proximal to the aorta and connected to a pressure transducer (Gould Staham P23ID, Eastlake, Ohio). A latex balloon filled with water and connected to the pressure transducer was inserted into the left ventricle through the left atrium to measure left ventricular end-diastolic pressure (LVEDP), left ventricular systolic pressure (LVSP), and developed left ventricular pressure (dLVP) (dLVP=LVSP−LVEDP). LVEDP during equilibration was set at 5 to 7 mm Hg. Coronary perfusion pressure, LVEDP, and LVSP were recorded continuously on a 4-channel recorder (Astro-Med, West Warwick, R.I.). […]
Forty-eight hr after injection of 1 mg/kg β1-AS-ODN (n=9) or inverted-ODN (n=6), SHR were anesthetized and sacrificed. […] Coronary perfusion pressure (CPP) was measured via a catheter placed proximal to the aorta and connected to a pressure transducer (Gould Statham P23ID). […] CPP, LVEDP and LVSP were continuously recorded on a 4-channel recorder (Astro-Med). […]

preprorenin mRNA = assay: RT-PCR and Southern blotting, renal cortex; format: in vivo, rat (SHR)
Experimental: (§1) At different time points after the single injection of β1-AS-ODN or inverted ODN, rats were euthanized, and the renal cortex was dissected from the left kidneys, immediately dipped into RNA later tissue storage buffer (Ambion), and stored at −20° C. Total RNA was extracted with RNAwiz reagent (Ambion) and quantified by spectrophotometer. RNA samples from 4 to 5 rats from each time point were pooled. RNA (5 μg) was digested by DNase I and reverse-transcribed by Superscript reverse transcriptase (GIBCO BRL) at 42° C. for 50 min. and 1/20 of the reverse transcription (RT) product was used to run a polymerase chain reaction (PCR) for 20 cycles. PCR primers for β1-AR were 5′-[…]-3′ (SEQ ID NO:199) (forward) and 5′-[…]-3′ (SEQ ID NO:200) (reverse) and yielded products of 432 bp, which spanned the AUG start codon. Primers for preprorenin were 5′-[…]-3′ (SEQ ID NO:201) (forward) and 5′-[…]-3′ (SEQ ID NO:202) (reverse) and yielded products of 362 bp.
(§2) Primers for GAPDH were 5′-[…]-3′ (SEQ ID NO:203) (forward) and 5′-[…]-3′ (SEQ ID NO:204) (reverse) and yielded products of 505 bp (Jo et al., 1996). RT-PCR products were subjected to Southern blotting, hybridized with psoralen-biotin-labeled cDNA probes, and detected with nonisotopic kits (Ambion). After the membranes had been exposed to x-ray films, the intensity of β1-AR and preprorenin mRNAs was quantified by densitometry and normalized with GAPDH mRNA levels. The studies were repeated at least twice.

β1-AR mRNA = assay: RT-PCR and Southern blotting, renal cortex; format: in vivo, rat (SHR); settings: 0.5 mg/kg i.v., semiquantitative RT-PCR
Experimental: as §1, §2

PRA = test system: PRA
Experimental: PRA was determined with an angiotensin I (^125I) radioimmunoassay kit (DuPont). Plasma Ang II levels were measured by radioimmunoassay as previously described (Phillips and Kimura, 1988).

plasma Ang II = assay: Plasma Ang II radioimmunoassay; format: in vivo, rat (SHR)
[2] = test system: spontaneously hypertensive rats; assay: Left ventricular hypertrophy after 2-month treatment; format: in vivo, rat (SHR); settings: end of 2-month treatment; vs controls
Experimental: Adult spontaneously hypertensive rats (300-350 g) were treated with β1-AS-ODNs for more than 2 months. The blood pressure was reduced by 20-30 mmHg persistently throughout the treatment period (FIG. 11). Control animals receiving saline or INV-ODNs had no change in blood pressure. At the end of a 2-month treatment, the hearts were dissected and weighed.

β1-ARs = biological target: T1, β1-ARs (Rattus norvegicus, UniProt P18090); settings: even after 18 days, single i.v. injection (Zhang et al., 1999); cited from earlier work
T1 construct: membranes were prepared from heart ventricles as previously described; from tissue; host or cells: heart ventricles of SHR
T1 sequence (P18090 whole entry): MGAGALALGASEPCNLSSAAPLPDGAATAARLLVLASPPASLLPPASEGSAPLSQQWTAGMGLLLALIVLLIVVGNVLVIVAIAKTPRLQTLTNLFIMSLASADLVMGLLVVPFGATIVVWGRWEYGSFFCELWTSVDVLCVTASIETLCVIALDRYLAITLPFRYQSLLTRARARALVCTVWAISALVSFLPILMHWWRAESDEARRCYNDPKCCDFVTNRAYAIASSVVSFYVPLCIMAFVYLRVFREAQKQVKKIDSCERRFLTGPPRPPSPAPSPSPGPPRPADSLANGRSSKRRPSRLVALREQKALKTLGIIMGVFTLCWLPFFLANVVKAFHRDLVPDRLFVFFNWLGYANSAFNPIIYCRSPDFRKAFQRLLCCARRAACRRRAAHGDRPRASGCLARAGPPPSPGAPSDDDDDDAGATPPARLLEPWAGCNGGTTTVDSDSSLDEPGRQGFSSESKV

Substance: 5′-CCGCGCCCATGCCGA-3′ (phosphorothioate backbone, further chemistry not given here) [β1-AS-ODN, 15-mer antisense ODN targeted to the AUG start codon of rat β1-AR mRNA]
- HR response to ISO [1]: not significantly decreased
- dLVP-ISO dose-response curve (positive inotropic effect of ISO) [1]: significantly shifted downward; also recorded: significantly shifted down
- preprorenin mRNA level in renal cortex (preprorenin mRNA; 4 days after injection): 62 % of control
- preprorenin mRNA decrease (preprorenin mRNA; by day 18): completely reversed
- level of steady-state β1-AR mRNA in renal cortex (β1-AR mRNA): did not reduce
- level of steady-state β1-AR mRNA in renal cortex (β1-AR mRNA; listed as AS-ODN): no reduction
- PRA (PRA; day 4): not on day 4
- PRA (PRA; day 10 and day 18): significantly decreased
- time after injection until decrease in PRA and Ang II occurred (PRA; single injection): ≈ 10 days
- plasma Ang II levels (plasma Ang II; day 4): not on day 4
- plasma Ang II levels (plasma Ang II; day 10 and day 18): significantly decreased
- left ventricular hypertrophy (LV/BW) [2]: significantly reduced
- decrease in ventricular β1-AR density (β1-ARs): 30-50%
